Columns and labels:
[1] = test system: Staphylococcus aureus; test: Antibacterial activity against Staphylococcus aureus; type: functional; details: read-out: LD50 (the source's name)
[2] = test system: Bacillus subtilis; test: Antibacterial activity against Bacillus subtilis; type: functional; details: read-out: LD50 (the source's name)

COC(=O)[C@@]12Oc3cc(C)c(-c4c(C)cc5c(c4O)C(=O)C4=C(O)C[C@@H](C)[C@@H](O)[C@@]4(CO[C@@H]4O[C@@H](C)[C@H](O)[C@@H](O)[C@H]4O)O5)c(O)c3C(=O)C1=C(O)[C@H](C)[C@@H](C)[C@@H]2O [HIRTUSNEANOSIDE]
LC50 [1]: 3.4 nM
LC50 [2]: 14 nM
